The source of these data is patent publication US20160083424A1, “COMPOSITIONS AND METHODS FOR TARGETING ANTIGEN-PRESENTING CELLS” (OSLO UNIVERSITETSSYKEHUS HF, priority 2013, published 2016).

Experiment [1] has as its system CD8 T cells specific for the NLVPMVATV epitope. The experiment can be described thus: Dextramer staining of CD8 T cells after stimulation with peptide-exposed DCs. Type of experiment: cell-based, human. To be noted: DC-stimulated CD8 T cells, CMV positive donors, equal molar concentrations, n=3. As to the method:
(§1) Peptides at a concentration of 5 μg/ml were incubated with semi mDCs from HLA-A2/CMV-positive donors for 60 min at 4° C. Subsequently, they were washed to remove unbound peptides. Autologous stimulation was done in 96-well tissue culture plates in X-vivo 15 medium. Briefly, DCs were mixed with 10^5 autologous CD4 or CD8 T cells at a DC/lymphocytes ratios of 1/5 and 1/10 in a final volume of 250 μl. Cells were incubated for 5 days and then they were pulsed with [^3H] thymidine and harvested 16 h later. [^3H] thymidine incorporation was measured in a β-scintillation counter. In some experiments, the cells were cultured for 8 days and then stained with dextramers specific for pp65 NLVPMVATV (SEQ ID NO:19) epitope.
Dextramers with CMV (NLVPMVATV) (SEQ ID NO:19) and HIV (ILKEPVHGV) (SEQ ID NO:22) HLA-A2 specific antigens were obtained from Immudex (Copenhagen, Denmark). Antibodies against human CD8, CD19 and CD56 were obtained from eBioscience (San Diego, Calif., USA). […] Cells were washed and resuspended in SB containing 1% paraformaldehyd and analyzed on a BD SLR II flow cytometer. The data were analyzed using FCS Express (De Novo Software, Los Angeles, Calif., USA).

Experiment [2] relates to autologous CD4 or CD8 T cells. The experiment can be described thus: Autologous stimulation of T lymphocytes by DCs exposed to targeted pp65 peptides, [3H] thymidine incorporation. Type of experiment: cell-based, human. As to conditions: semi mDCs loaded at 4° C., HLA-A2+/CMV positive donors, 5 days. The procedure: as §1
The capacity of the NW-pp65 fusion peptide (60-mer) to activate T cells from HLA-A2+/CMV positive donors was evaluated. It should be noted that the 48-mer pp65 peptide contains both MHC class I (e.g. NLVPMVATV) (SEQ ID NO:19) and class II (e.g. AGILARNLVPMVATV (SEQ ID NO:23), FFWDANDIYRI (SEQ ID NO:24)) epitopes, allowing the detection of CD4 and CD8 T-cell responses (24-26). […] All cultures were incubated at 37° C. for 5 days and T-cell activation was determined by measuring their proliferation potential (FIG. 6A). […]

Regarding “NWYLPWLGTNDWGCFTWPPWQAGILARNLVPMVATVQGQNLKYQEFFWDANDIYRIFAEL [NW-60-mer, 48-mer CMV pp65 peptide fused to NW peptide]”, the “dextramer-positive CD8 T cells specific for NLVPMVATV” value in experiment [1] amounted to 10.50%. Also, the “T-cell activation (proliferation, [3H]-thymidine)” value in experiment [2] is “activated both CD8 and CD4 T cells”.
